One data set has as its system IL-6. The data set can be described thus: In vitro measurement of IL-6 in human PBMC (LPS stimulated). Type of data set: cell-based. The essentials: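 Human PBMC (0.5 million/well) pre-incubated with compound 15 min at 37 °C, then stimulated with E. coli LPS (1 μg/ml) for 18 h at 37 °C, 5% CO2. IL-6 in culture medium quantified by ELISA.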
Another data set has as its target T1, COX-2 (Homo sapiens, UniProt P35354).
T1 construct: Fresh blood was collected in tubes containing sodium heparin by vein puncture from healthy male volunteers; endogenous in cells; host or cells: human whole blood from healthy male volunteers, stimulated with LPS
T1 sequence (P35354 18-604): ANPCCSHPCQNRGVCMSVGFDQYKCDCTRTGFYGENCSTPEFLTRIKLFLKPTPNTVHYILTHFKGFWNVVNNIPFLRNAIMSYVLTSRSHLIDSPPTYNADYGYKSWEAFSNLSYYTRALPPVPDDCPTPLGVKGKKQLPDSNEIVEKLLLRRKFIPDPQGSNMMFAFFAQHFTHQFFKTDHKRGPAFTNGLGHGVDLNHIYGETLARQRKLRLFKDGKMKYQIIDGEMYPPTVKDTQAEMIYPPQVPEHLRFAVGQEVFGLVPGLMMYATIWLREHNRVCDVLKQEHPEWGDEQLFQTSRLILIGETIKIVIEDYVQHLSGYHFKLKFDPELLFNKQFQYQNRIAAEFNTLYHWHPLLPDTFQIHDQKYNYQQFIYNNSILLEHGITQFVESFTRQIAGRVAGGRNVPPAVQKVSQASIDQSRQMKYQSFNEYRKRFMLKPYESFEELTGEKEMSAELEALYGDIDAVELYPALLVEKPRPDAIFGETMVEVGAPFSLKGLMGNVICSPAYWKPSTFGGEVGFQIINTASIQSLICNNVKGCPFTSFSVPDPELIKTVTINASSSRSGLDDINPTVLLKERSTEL
Kind of data set: Human whole blood assay (PGE-2 inhibition, COX-2). Type of data set: cell-based. As to conditions: LPS stimulated human whole blood, NA = No activity, read-out: % PGE-2 Inhibition in hWBA. As to the method: In Vitro Evaluation of Cyclooxygenase-2 (Cox-2) Inhibition Activity
The COX-2 inhibition activities of the compounds illustrated in the examples were determined by the following method.
Human whole blood provides a protein and cell rich milieu appropriate for the study of the biochemical efficacy of anti-inflammatory compounds such as selective COX-2 inhibitors. […] This correlates with the observation that COX-2 inhibitors have no effect on prostaglandin E2 (PGE2) production in normal blood. These inhibitors were active only after incubation of human blood with lipopolysaccharide (LPS), which induces COX-2 production in the blood.
Fresh blood was collected in tubes containing sodium heparin by vein puncture from healthy male volunteers. The subjects should have no apparent inflammatory conditions and should have not taken NSAIDs for at least 7 days prior to blood collection. Blood was preincubated with aspirin in vitro (12 μg/ml, at time zero) to inactivate COX-1 for 6 hours. Then test compounds (at various concentrations) or vehicle were added to blood, the blood was stimulated with LPS B:4 (10 μg/ml) and incubated for another 18 hours at 37° C. water bath. After which the blood was centrifuged, plasma was separated and stored at −80° C. (J. Pharmacol. Exp. Ther, 271, 1705, 1994; Proc. Natl. Acad. Sci. USA, 96, 7563, 1999). The plasma was assayed for PGE2 using Cayman ELISA kit as per the procedure outlined by the manufacturer (Cayman Chemicals, Ann Arbor, USA).

The test system of a further data set is Animals (male wistar). The data set can be described thus: Ulcerogenic potential. Type of data set: in vivo. As to conditions: oral, 4 hours after administration. As to the method:
In order to evaluate the compound's role on the ulcer formation, the animals were sacrificed and the stomach was taken out and flushed with 1% formalin. Animals (male wistar. 200 g) were fasted for 18 hours with free access to water and the test compounds were suspended in 0.5% Tween 80 and 0.25% CMC (carboxymethylcellulose) solution to make a uniform suspension. After 4 hours of oral administration of test compounds, all the animals were sacrificed by cervical dislocation. The stomach was dissected carefully and filled up with a sterile saline solution and embedded in 6% formalin solution. […] The test compound treated groups were compared with the vehicle treated groups. […]

For the molecule `CNS(=O)(=O)c1ccc(-c2c(Cl)nc(C(F)(F)F)nc2-c2ccc(S(C)(=O)=O)cc2)cc1` [Example 4, 4-{4-Chloro-6-[4-(methylsulfonyl)phenyl]-2-(trifluoromethyl)pyrimidin-5-yl}-N-methylbenzenesulfonamide], the inhibition at 1 µM was 27.2% in the data set on IL-6 (1 μM, read-out: IL-6 Inhibition (%) Conc. (1 μM)) and 22.9% at COX-2 (1 μM). Besides, the inhibition at 10 µM was found to be 100% in the data set on IL-6 (10 μM, read-out: IL-6 Inhibition (%) Conc. (10 μM)) and 35.6% at COX-2 (10 μM). In addition, on COX-2 (0.25 μM), the inhibition at 0.25 µM was 6.1%. In addition, the “Ulcer incidence at 5 mg/kg” value in the data set with Animals (male wistar) was “Nil”.

As usually defined, the inhibition is the drop in the measured response relative to a control, in per cent.
